Source: patent publication US20240082212A1, “USE OF MDMA FOR TREATMENT OF STRESS-RELATED DISORDERS” (priority 2022, published 2024)

How the values were obtained:
Serotonin 5-HT2C = target: T1, Serotonin 5-HT2C (Homo sapiens, UniProt P28335); assay: biochemical; assay type: binding
T1 sequence (P28335 33-458): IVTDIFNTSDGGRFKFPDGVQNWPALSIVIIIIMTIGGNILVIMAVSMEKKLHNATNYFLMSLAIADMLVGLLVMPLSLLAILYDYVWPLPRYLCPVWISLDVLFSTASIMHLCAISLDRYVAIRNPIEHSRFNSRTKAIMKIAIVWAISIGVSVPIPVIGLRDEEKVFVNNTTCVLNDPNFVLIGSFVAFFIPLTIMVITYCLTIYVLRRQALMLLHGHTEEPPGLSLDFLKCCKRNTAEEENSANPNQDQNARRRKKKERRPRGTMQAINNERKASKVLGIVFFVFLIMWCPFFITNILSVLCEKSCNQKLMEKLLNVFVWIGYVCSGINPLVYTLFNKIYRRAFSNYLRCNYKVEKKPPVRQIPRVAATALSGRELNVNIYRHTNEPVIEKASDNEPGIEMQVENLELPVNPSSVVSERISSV

[1] = target: Nicotinic acetylcholine α3β4 (Homo sapiens, UniProt P30926+P32297); assay: Eurofins Panlabs radioligand binding panel, nicotinic acetylcholine α3β4
Chain of Nicotinic acetylcholine α3β4 (P32297 32-505): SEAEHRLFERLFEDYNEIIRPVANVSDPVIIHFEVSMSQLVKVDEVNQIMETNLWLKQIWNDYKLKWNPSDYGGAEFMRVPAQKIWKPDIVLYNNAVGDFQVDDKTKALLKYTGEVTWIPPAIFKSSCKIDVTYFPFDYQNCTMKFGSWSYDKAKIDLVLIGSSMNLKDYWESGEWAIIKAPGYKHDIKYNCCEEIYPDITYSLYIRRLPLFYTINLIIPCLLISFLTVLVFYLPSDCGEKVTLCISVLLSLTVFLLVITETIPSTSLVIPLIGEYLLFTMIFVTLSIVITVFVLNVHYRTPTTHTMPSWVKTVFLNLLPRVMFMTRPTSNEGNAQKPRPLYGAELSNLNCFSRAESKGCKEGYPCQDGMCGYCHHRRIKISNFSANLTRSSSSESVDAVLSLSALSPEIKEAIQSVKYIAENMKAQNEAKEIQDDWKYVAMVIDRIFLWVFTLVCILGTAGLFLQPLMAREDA
Chain of Nicotinic acetylcholine α3β4 (P30926 22-498): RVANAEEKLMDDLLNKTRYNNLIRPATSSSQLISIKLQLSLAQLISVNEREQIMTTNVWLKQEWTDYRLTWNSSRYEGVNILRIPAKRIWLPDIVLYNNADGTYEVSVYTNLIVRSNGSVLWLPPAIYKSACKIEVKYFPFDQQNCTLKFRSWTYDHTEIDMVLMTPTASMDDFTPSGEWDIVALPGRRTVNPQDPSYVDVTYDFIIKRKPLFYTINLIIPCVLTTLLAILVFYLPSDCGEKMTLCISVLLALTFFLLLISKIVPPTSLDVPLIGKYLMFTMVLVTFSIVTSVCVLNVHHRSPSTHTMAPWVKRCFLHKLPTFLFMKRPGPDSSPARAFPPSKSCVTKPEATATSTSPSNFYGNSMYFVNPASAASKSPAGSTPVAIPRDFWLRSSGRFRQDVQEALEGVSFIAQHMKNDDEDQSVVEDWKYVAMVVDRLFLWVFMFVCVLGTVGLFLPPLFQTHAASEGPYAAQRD

C57BL/6 mice [2] = assay: Mouse extinction of conditioned fear assay; assay type: in vivo
Protocol: Racemic MDMA and R(−)-MDMA were evaluated for extinction of fear memory. The study utilized a mouse extinction of conditioned fear assay. A conditioned fear response is induced by pairing a previously neutral stimulus (conditioned stimulus; CS, such as an auditory tone) and aversive stimulus (unconditioned stimulus; US, such as […]). The fear response is later extinguished with repeated re-exposure to the CS in the absence of the US. This is a useful model for understanding learning and memory processes required for long-term recovery from PTSD, because it resembles exposure-based therapy, wherein repeated exposure to a fear-eliciting stimulus or memory promotes a reduced fear response to future reminders of the trauma. […] The current experiment investigated the ability of varying doses of R(−)-MDMA to facilitate extinction of conditioned fear in mice.
Standard rodent chow and water was available ad libitum.
The animal procedures were conducted according to established protocols approved by the IACUC committee and Melior Discovery Inc. Standard Operation Procedures (SOP). The behavioral procedure was adapted from Young et al., Transl Psychiatry 5, e634 (2015) with slight modifications. Mice were handled for two consecutive days for four minutes each day and injected with drug vehicles prior to the experiment. […] Fear conditioning was conducted in individual automated chambers built by Kinder Scientific (Poway, CA) that detect movement with infrared beams. On Day 1, Conditioning, each animal was placed in a chamber and presented a training session (Context A). An almond scent was present under the grid floor during the entire session. The training procedure consisted of a 2-minute habituation followed by a 30-second, 80 dB tone (CS). During the last 2 seconds of the tone, the animal received a 1 mA foot shock (US). This US-CS procedure occurred once for a total of one paired presentation of tone and shock. Freezing behavior (immobility) was recorded in 5-second intervals during the session. Percent baseline freezing behavior was determined in the 2-minute habituation period. After the session, animals were returned to their cages in the holding room. Animals were not manipulated on Day 2. On Day 3, Extinction Training, two days (48 hours) following fear conditioning, each animal was placed in Context B, in which the tactile and odor cues of the conditioning chambers were altered with a different (lemon) scent and black Plexiglas floor placed over the grid floor. Following a 2-minute acclimation period, the animal received four 30-second presentations of the CS (tone) in the absence of the US (foot shock), with a 45-second interval between presentations and 30 seconds of chamber consolidation. Immobility was recorded in 5-second intervals to measure baseline freezing response to the altered context, and freezing response to each tone/cue presentation. On Day 3, each animal was administered vehicle or racemic MDMA by intraperitoneal (IP) injection at 30 minutes prior, to the extinction training session. On Days 4, 8, and 13, Extinction Testing sessions, each animal was placed in Context B. Following a 2-minute acclimation period, each animal received four 30-second presentations of the CS (tone) in the absence of the US (foot shock), with a 45-second interval between presentations and 30 seconds of chamber consolidation. Immobility was recorded in 5-second intervals to measure baseline freezing response to the altered context, and freezing response to each tone/cue presentation.
Each animal in each treatment group received IP administration of vehicle or R(−)-MDMA or racemic MDMA at 30 minutes prior to extinction training on day 3. […] Injection volumes were 10 mL/kg. The study was run in 2 cohorts. Data were presented as mean±standard error of the mean of the percentage (%) of the session time spent freezing (absence of movement other than respiration) or activity counts during the 2-minute acclimation period.

C57BL/6 mice [3] = assay: Mouse locomotor activity over 11 days after single administration
Protocol: Methods. Male C57BL/6 mice (n=10-12 per group) from Jackson Laboratories, US (10-12 weeks of age), were assigned randomly to treatment groups. The animals were acclimated to the laboratory for at least five days prior to experimental manipulation. […] Standard rodent chow and water were available ad libitum, except during experimental test sessions. Animals were maintained in a controlled environment, and temperature and humidity were recorded continuously in the holding room.
The animal procedures were conducted according to established and approved protocols. On each experimental day, animals were acclimated to a procedure room adjacent to the testing room for at least 30 minutes prior to the start of experimental sessions. To evaluate acute compound effects on activity, an animal was administered a single dose of test article 30 minutes prior to individual placement in a novel test chamber on experimental day 1. Activity was detected using photo beams (e.g., 16×16 beams with a space of 2 cm between beams, Med Associates®) and recorded using the Activity Monitor™ program designed by Med Associates®. The primary endpoint was total distance traveled (cm), as a measure of locomotion. Additional activity measures included total ambulatory counts, ambulatory time (sec), vertical counts and vertical time (sec). All endpoints were recorded and analyzed over a 30-minute test period. At the end of the test session, each animal was returned to its home cage. To evaluate potential lasting effects on activity following single administration of compounds, each animal was re-evaluated in the same test chamber on experimental days 2, 6, and 11, without additional test article administration.
Animals were randomly assigned to treatment groups and testing was conducted in a manner counterbalancing treatment groups. Activity measures were analyzed statistically using 2-way analysis of variance (ANOVA) with experimental day as the within-subjects factor and treatment as the between-subjects factor. Following a significant overall ANOVA (p<0.05), post hoc comparisons between test article and vehicle conditions were made using Fisher's Least Significant Difference (LSD, p<0.05).

[4] = Day 3, racemic MDMA 7.8 mg/kg IP
[5] = Day 4, racemic MDMA 7.8 mg/kg IP
[6] = Days 8 and 13, single racemic MDMA 7.8 mg/kg IP on Day 3
[7] = racemic MDMA 7.8 mg/kg IP, Day 1, persisted out to Day 2, vs vehicle
[8] = racemic MDMA 7.8 mg/kg IP, any day of testing (Days 1, 2, 6, 11)
[9] = read-out: % inhibition of binding or activity
[10] = Days 8 and 13, single R-MDMA 30 mg/kg IP on Day 3
[11] = R-MDMA all 3 dose levels (10, 17, 30 mg/kg IP), only on Day 1

Structure (SMILES): CNC(C)Cc1ccc2c(c1)OCO2 (racemic) [Racemic MDMA, 3,4-methylenedioxymethamphetamine]
- % inhibition of binding or activity (Serotonin 5-HT2C; 10 µM): 87%
- % inhibition of binding or activity ([1]; 10 uM): 66%
- activity counts vs vehicle (C57BL/6 mice [2]; [4]): significant increase in activity
- freezing vs vehicle (C57BL/6 mice [2]; [4]): significantly reduced freezing
- activity counts vs vehicle (C57BL/6 mice [2]; [5]): significantly increased activity
- freezing vs vehicle (C57BL/6 mice [2]; [5]): significantly reduced freezing
- activity counts vs vehicle (C57BL/6 mice [2]; [6]): significant increases in activity
- freezing vs vehicle (C57BL/6 mice [2]; [6]): significantly reduced freezing
- total distance traveled (C57BL/6 mice [3]; racemic MDMA 7.8 mg/kg IP, Day 1, persisted out to Day 2, 30-minute test, vs vehicle): significantly increased
- total ambulatory counts (C57BL/6 mice [3]; [7]): increased
- total ambulatory time (C57BL/6 mice [3]; [7]): increased
- total vertical counts (C57BL/6 mice [3]; [8]): did not alter
- total vertical time (C57BL/6 mice [3]; [8]): did not alter

Structure (SMILES): CNC(C)Cc1ccc2c(c1)OCO2 (single isomer, unassigned) [R-MDMA, R(−)-3,4-methylenedioxymethamphetamine]
- inhibition at 10 µM (Serotonin 5-HT2C; [9]): 78%
- inhibition at 10 µM [1, 9]: 55%
- freezing vs vehicle (C57BL/6 mice [2]; Day 3 (extinction training, single IP dose 30 min prior), R-MDMA 17 and 30 mg/kg): reduced freezing
- freezing vs vehicle (C57BL/6 mice [2]; Day 3, R-MDMA 10 mg/kg IP): no significant effect on freezing
- activity counts vs vehicle (C57BL/6 mice [2]; Day 3, all doses of R-MDMA (10, 17, 30 mg/kg IP)): Significantly increased activity counts
- freezing vs vehicle (C57BL/6 mice [2]; Day 4 (day after single dose), R-MDMA 10, 17 and 30 mg/kg IP): significantly reduced freezing
- activity vs vehicle (C57BL/6 mice [2]; Day 4, R-MDMA 10 mg/kg IP): without a significant increase in activity
- activity counts vs vehicle (C57BL/6 mice [2]; Day 4, R-MDMA 30 mg/kg IP): significantly increased activity
- locomotor activity vs vehicle (C57BL/6 mice [2]; Days 3, 4, 8, 13, R-MDMA 17 mg/kg IP on Day 3): significantly increased locomotor activity only on the day of administration
- freezing significantly reduced (C57BL/6 mice [2]; Days 8 and 13, single R-MDMA 17 mg/kg IP on Day 3): but not on Days 8 and 13
- activity counts vs vehicle (C57BL/6 mice [2]; [10]): significant increases in activity
- freezing vs vehicle (C57BL/6 mice [2]; [10]): significantly reduced freezing
- total ambulatory time (C57BL/6 mice [3]; R-MDMA 2 highest doses (17, 30 mg/kg IP), only on Day 1): significantly increased
- total distance traveled (C57BL/6 mice [3]; R-MDMA 10, 17, 30 mg/kg IP, any dose, any day of testing): no significant increase
- total vertical counts (C57BL/6 mice [3]; [11]): significantly reduced
- total vertical time (C57BL/6 mice [3]; [11]): significantly reduced
- total ambulatory counts (C57BL/6 mice [3]; R-MDMA highest dose (30 mg/kg IP), only on Day 1): significantly increased
- total vertical time (C57BL/6 mice [3]; R-MDMA lowest dose (10 mg/kg IP), day 2 only): significant increase
